Values after ≈ are worked out from the molar mass of the structure shown. Ends that are not written are not given here. Peptide text beside a SMILES is read from it.
What was measured:
Type in all cases: cell-based
[1] = test system: Escherichia coli: ATCC 9723H; details: for MBC / MIC: ATCC 9723
Description: (§1) Microtiter broth dilution assays. HP2, HP3, and HP5 peptides are comprised of novel sequences that have not yet been described in the AMP literature. A common method for establishing antimicrobial activity of peptides is to perform microtiter broth assays. Microtiter broth dilution methods were implemented for determination of the minimum inhibitory concentration (MIC) and minimum bactericidal concentration (MBC). HP3 and HP5 were tested in addition to Ranatuerin-1/HP4 peptide as a positive control. HP2 could not be tested because multiple peptide synthesis attempts failed. The human cathelicidin, LL-37^30 was used as an additional positive control, and an unrelated similarly sized cationic peptide from the T. pallidum protein Tp0751 was used as a negative control. The potential AMPs were tested against bacteria representative of all three types of known cell envelope (Gram-positive, negative, and the complex and unique mycobacterial cell wall/envelope), given that a major mechanism used by AMPs is cell wall/membrane targeting.
(§2) Microtiter broth dilution assays. To test for antimicrobial activity, HP3, HP4/Ranatuerin-1, and HP5, peptides were synthesized by GenScript (Piscataway, New Jersey, USA). HP2 was not tested because the service provider was unable to synthesize this peptide despite multiple attempts. An unrelated, similarly-sized peptide from the Treponema pallidum protein Tp0751^55 was used as a negative control and the human cathelicidin, LL-37^30, was included as a positive control. Peptides were dissolved in filter-sterilized ultrapure water and tested for sterility by plating on non-selective agar plates followed by a 48 h incubation at 37° C. Two-fold serial dilutions of each peptide were prepared to obtain a series corresponding to ten times the required testing concentrations (2560, 1280, 640, 320, 160, 80, 40, 20, 10, and 5 μg/mL)^29.
(§3) Microtiter broth dilution methods were implemented for determination of the minimum inhibitory concentration (MIC) and minimum bactericidal concentration (MBC) of the four putative AMPs and the negative control peptide using procedures adapted from the R.E.W. Hancock Laboratory for cationic AMPs^29 and the CLSI methods for dilution antimicrobial susceptibility tests^56.
(§4) To assess antimicrobial activity across a diverse range of bacterial species, colonies were cultured overnight on Mueller Hinton agar plates (MHA; +5% sheep blood for S. pyogenes)^56 from frozen glycerol stock. Bacteria tested include Gram-negative rods (Escherichia coli: ATCC 9723H; Pseudomonas aeruginosa: ATCC 10148), Gram-positive cocci (Staphylococcus aureus: ATCC 6538P; Streptococcus pyogenes: unknown strain, hospital isolate), and Mycobacterium smegmatis (MC^2155; classified as neither Gram-positive nor Gram-negative). Bacterial suspensions were prepared by placing 3-5 morphologically similar colonies from the grown plate into sterile glass culture tubes containing 2 mL of Mueller Hinton Broth (MHB; +5% lysed horse blood for S. pyogenes) 56. Microbial inoculums from bacterial suspensions were prepared through a spectrophotometric adjustment of turbidity to 0.08-0.1 at 600 nm to achieve a turbidity equivalent to that of a 0.5 McFarland standard (1-2×10^8 CFU/mL)^29. The standardized bacterial inoculums were then diluted in MHB to obtain final cell densities of approximately […].
(§5) Ninety-six-well microtiter plates (Fisher Cat. No. CS003790; Nepean, Ontario, Canada) were prepared with 100 μL of E. coli, P. aeruginosa, S. aureus, S. pyogenes, or M. smegmatis bacterial suspension (5×10^5 CFU/mL) dispensed into each well of columns 1 through 11. Eleven microliters of the 10×AMP dilution series for all four peptides were added to each well from column 1 (2560 μg/mL) to column 10 (5 μg/mL) in all plates. Column 11 functioned as a positive control for bacterial growth in the absence of AMPs. Column 12 in each plate contained 100 μL of MHB as a sterility control (+5% lysed horse blood for S. pyogenes)^56. […]

[2] = test system: Mycobacterium smegmatis (MC^2155); details: for MBC / MIC: Mycobacterium (MC^2155)
Description: as §1, §2, §3, §4, §5

[3] = test system: Pseudomonas aeruginosa: ATCC 10148; details: for MBC / MIC: ATCC 10148
Description: as §1, §2, §3, §4, §5

[4] = test system: Staphylococcus aureus: ATCC 6538P; details: for MBC / MIC: ATCC 6538
Description: as §1, §2, §3, §4, §5

[5] = test system: Streptococcus pyogenes: unknown strain, hospital isolate; details: for MBC / MIC: unknown strain, hospital isolate
Description: as §1, §2, §3, §4, §5

[6] = test system: Escherichia coli—Carbapenemase-producing organism; New-Dehli Metallobetalactamase
Description: (§6) Independent experiments were conducted with four strains of E. coli, including ATCC E. coli (Escherichia coli—ATCC 25922 “wild type”); ESBL E. coli (Escherichia coli—Extended spectrum beta-lactamase); CPO E. coli (KPC) (Escherichia coli—Carbapenemase-producing organism; Klebsiella pneumoniae carbapenemase); and CPO E. coli (NDM) (Escherichia coli—Carbapenemase-producing organism; New-Dehli Metallobetalactamase).
(§7) The ATCC (American Type Culture Collection) strains received from Cedarlane. Multi drug resistant (MDR) strains, as clinical isolates, were received from the laboratory of Dr. Linda Hoang.
(§8) Putative antimicrobial peptides were synthesized by GeneScript. A-list antimicrobial peptides re-synthesized by GeneScript. P2_CCH, P5_CCH, and P5_CCH_A19K were each synthesized under two conditions: standard synthesis using TFA, and the other with TFA-removal using acetate as a counter-ion. A MIC method, adapted for use with cationic antimicrobial peptides, was used to evaluate MIC antimicrobial activity (Hancock 1999).
(§9) The following data are presented to show the activity (MIC/MBC in μg/mL) of certain antimicrobial peptides described herein relative to a modified/synthetic version having a specified substitution. While data presented in tables above may be presented again, or may be represented in data provided in the tables below, such duplication is believed to assist the reader in readily noting comparisons. Different Run Numbers noted in the following tables denotes experiments conducted on different days, with each run reflecting multiple n values.

[7] = test system: Escherichia coli—ATCC 25922 “wild type”
Description: as §6, §7, §8, §9

[8] = test system: Escherichia coli—Carbapenemase-producing organism; Klebsiella pneumoniae carbapenemase
Description: as §6, §7, §8, §9

MIC [1] [µg/mL] | MIC [2] [µg/mL] | MIC [3] [µg/mL] | MIC [4] [µg/mL] | MIC [5] [µg/mL] | MIC [6] [µg/mL] | MIC [7] [µg/mL] | MIC [8] [µg/mL] | Compound | MBC [1] [µg/mL] | MBC [2] [µg/mL] | MBC [3] [µg/mL] | MBC [4] [µg/mL] | MBC [5] [µg/mL] | MBC [8] [µg/mL] | inhibitory or bacteriostatic activity ([1]; E. coli) | bacteriostatic and bacteriocidal activity ([2]; M. smegmatis) | inhibitory or bacteriostatic activity ([3]; P. aeruginosa) | inhibitory or bacteriostatic activity ([4]; S. aureus) | inhibitory or bacteriostatic activity ([5]; S. pyogenes)
>256 | 32 | >256 | >256 | >256 | 256 |  |  | ATAWRIPPPGMQPIIPIRIRPLCGKQ [Peptide P7_CCH] | >256 | >256 | >256 | >256 | >256 |  |  |  |  |  | 
 |  |  |  |  | 128 (≈ 55.5 µM) | 128 (≈ 55.5 µM) | 256 (≈ 111 µM) | CC(C)C[C@H](NC(=O)[C@H](CS)NC(=O)[C@@H]1CCCN1C(=O)[C@H](CCCCN)NC(=O)[C@H](CCCNC(=N)N)NC(=O)[C@@H]1CCCN1C(=O)[C@H](Cc1ccccc1)NC(=O)[C@H](CO)NC(=O)[C@H](CCCCN)NC(=O)[C@@H](NC(=O)[C@H](Cc1c[nH]c2ccccc12)NC(=O)[C@H](CS)NC(=O)CNC(=O)[C@H](CCCNC(=N)N)NC(=O)[C@H](CC(C)C)NC(=O)[C@@H](N)CO)[C@@H](C)O)C(=O)N[C@@H](CCCNC(=N)N)C(=O)N[C@@H](CC(N)=O)C(=O)N[C@@H](CCCNC(=N)N)C(=O)O [HP3_S3R] (H-SLRGCWTKSFPRKPCLRNR-OH; N-terminus and C-terminus assumed) |  |  |  |  |  | 256 (≈ 111 µM) |  |  |  |  | 
>256 | >256 | >256 | >256 | >256 |  |  |  | FLTKPGMTFGKLLGK [Peptide P9_CCH] | >256 | >256 | >256 | >256 | >256 |  |  |  |  |  | 
>256 | 128 (≈ 96.8 µM) | >256 | >256 | >256 |  |  |  | CC[C@H](C)[C@H](NC(=O)[C@H](C)NC(=O)[C@@H]1CCCN1C(=O)[C@@H](N)Cc1ccccc1)C(=O)N[C@H](C(=O)N[C@@H](CS)C(=O)N[C@@H](CCCCN)C(=O)N[C@H](C(=O)N[C@@H](CO)C(=O)N[C@@H](CCCCN)C(=O)N[C@@H](CC(N)=O)C(=O)N[C@@H](CS)C(=O)O)C(C)C)[C@@H](C)CC [Peptide P8_CCH, FPAIICKVSKNC] (H-FPAIICKVSKNC-OH; N-terminus and C-terminus assumed) | >256 |  | >256 | >256 | >256 |  |  |  |  |  | 
>256 | >256 | >256 | >256 | >256 |  |  |  | CC[C@H](C)[C@H](NC(=O)CNC(=O)[C@@H](NC(=O)[C@@H](NC(=O)[C@H](CCCCN)NC(=O)CNC(=O)[C@@H](NC(=O)[C@H](CC(=O)O)NC(=O)[C@H](CCCCN)NC(=O)[C@@H](NC(=O)[C@@H](NC(=O)[C@H](CC(=O)O)NC(=O)[C@H](CC(C)C)NC(=O)[C@H](CC(C)C)NC(=O)CN)[C@@H](C)CC)[C@@H](C)CC)[C@@H](C)O)[C@@H](C)O)[C@@H](C)O)C(=O)N[C@@H](CC(C)C)C(=O)N[C@@H](CCSC)C(=O)N[C@@H](CC(=O)O)C(=O)N[C@H](C(=O)N[C@@H](CC(C)C)C(=O)N[C@@H](CCCCN)C(=O)N[C@@H](CS)C(=O)N[C@@H](CCC(N)=O)C(=O)N[C@@H](CCSC)C(=O)N[C@H](C(=O)NCC(=O)N[C@@H](CCCNC(=N)N)C(=O)N[C@@H](CS)C(=O)N1CCC[C@H]1C(=O)N1CCC[C@H]1C(=O)N[C@@H](CO)C(=O)N[C@@H](CO)C(=O)O)[C@@H](C)O)[C@@H](C)O [Peptide P3_CCH] (H-GLLDIIKDTGKTTGILMDTLKCQMTGRCPPSS-OH; N-terminus and C-terminus assumed) | >256 | >256 | >256 | >256 | >256 |  |  |  |  |  | 
>256 |  | >256 | >256 | >256 |  |  |  | CC[C@H](C)[C@H](NC(=O)[C@H](CC(C)C)NC(=O)[C@H](CCCCN)NC(=O)[C@H](CCCCN)NC(=O)[C@H](CS)NC(=O)[C@H](CCCNC(=N)N)NC(=O)[C@H](CCC(=O)O)NC(=O)[C@@H](NC(=O)[C@@H]1CCCN1C(=O)[C@@H](NC(=O)[C@H](CCC(=O)O)NC(=O)[C@H](CO)NC(=O)[C@H](CS)NC(=O)[C@H](CCC(=O)O)NC(=O)[C@H](CCC(=O)O)NC(=O)[C@H](CCCCN)NC(=O)[C@@H](NC(=O)[C@H](CC(C)C)NC(=O)[C@H](CCC(=O)O)NC(=O)[C@H](CCC(=O)O)NC(=O)[C@H](CC(C)C)NC(=O)[C@H](C)NC(=O)[C@H](CCCNC(=N)N)NC(=O)[C@H](CC(C)C)NC(=O)[C@H](CC(N)=O)NC(=O)[C@H](CO)NC(=O)[C@@H]1CCCN1C(=O)[C@@H](N)CC(N)=O)C(C)C)[C@@H](C)CC)C(C)C)C(=O)N[C@@H](Cc1ccc(O)cc1)C(=O)NCC(=O)N[C@@H](Cc1ccc(O)cc1)C(=O)N[C@@H](CCCNC(=N)N)C(=O)N[C@@H](CCCCN)C(=O)O [HP5] (H-NPSNLRALEELVKEECSEIPVERCKKLIYGYRK-OH; N-terminus and C-terminus assumed) | >256 |  | >256 | >256 | >256 |  | no effect | weak bacteriostatic and bacteriocidal activity | no effect | no effect | no effect
>256 | >256 | >256 | >256 | >256 |  |  |  | IAGQVAAAKQKHI [Peptide P12_CCH, IAGQVAAAKQKHI] | >256 | >256 | >256 | >256 | >256 |  |  |  |  |  | 

From patent publication US12280090B2, “Antimicrobial peptides” (priority 2018, dated 2025)
